In patent US8680012B2, “4-phenyl-pyrane-3,5-diones,4-phenyl-thiopyrane-3,6-diones and cyclohexanetriones as novel herbicides” (Syngenta Crop Protection LLC, priority 2006, dated 2014):

Key:
Format in all cases: in vivo
[1] = tested on: Alopecurus myosuroides (ALOMY); assay: Example B pre-emergence herbicidal activity, glasshouse pot test; details: 312 h, rate 250 g/ha, evaluated after 13 days, read-out: Pre-emergence activity ALOMY (100=total damage to plant; 0=no damage to plant)
Description: (§1) Seeds of a variety of test species were sown in standard soil in pots. After cultivation for one day (pre-emergence) or after 8 days cultivation (post-emergence) under controlled conditions in a glasshouse (at 24/16° C., day/night; 14 hours light; 65% humidity), the plants were sprayed with an aqueous spray solution derived from the formulation of the technical active ingredient in acetone/water (50:50) solution containing 0.5% Tween 20 (polyoxyethelyene sorbitan monolaurate, CAS RN 9005-64-5). The test plants were then grown in a glasshouse under controlled conditions in a glasshouse (at 24/16° C., day/night; 14 hours light; 65% humidity) and watered twice daily. After 13 days for pre and post-emergence, the test was evaluated (100=total damage to plant; 0=no damage to plant).
(§2) Alopecurus myosuroides (ALOMY), Avena fatua (AVEFA), Setaria faberi (SETFA), Echinochloa crus-galli (ECHCG), Solanum nigrum (SOLNI) and Amaranthus retroflexus (AMARE)

[2] = tested on: Amaranthus retroflexus (AMARE); assay: as above; details: 312 h, rate 250 g/ha, evaluated after 13 days, read-out: Pre-emergence activity AMARE (100=total damage to plant; 0=no damage to plant)
Description: as §1, §2

Avena fatua (AVEFA) [3] = assay: as above; details: 312 h, rate 250 g/ha, evaluated after 13 days, read-out: Pre-emergence activity AVEFA (100=total damage to plant; 0=no damage to plant)
Description: as §1, §2

[4] = tested on: Echinochloa crus-galli (ECHCG); assay: as above; details: 312 h, rate 250 g/ha, evaluated after 13 days, read-out: Pre-emergence activity ECHCG (100=total damage to plant; 0=no damage to plant)
Description: as §1, §2

Setaria faberi (SETFA) [5] = assay: as above; details: 312 h, rate 250 g/ha, evaluated after 13 days, read-out: Pre-emergence activity SETFA (100=total damage to plant; 0=no damage to plant)
Description: as §1, §2

[6] = tested on: Alopecurus myosuroides (ALOMY); assay: Example B post-emergence herbicidal activity, glasshouse pot test; details: 312 h, rate 250 g/ha, evaluated after 13 days, read-out: Post-emergence activity ALOMY (100=total damage to plant; 0=no damage to plant)
Description: as §1, §2

[7] = tested on: Amaranthus retroflexus (AMARE); assay: as above; details: 312 h, rate 250 g/ha, evaluated after 13 days, read-out: Post-emergence activity AMARE (100=total damage to plant; 0=no damage to plant)
Description: as §1, §2

Avena fatua (AVEFA) [8] = assay: as above; details: 312 h, rate 250 g/ha, evaluated after 13 days, read-out: Post-emergence activity AVEFA (100=total damage to plant; 0=no damage to plant)
Description: as §1, §2

[9] = tested on: Echinochloa crus-galli (ECHCG); assay: as above; details: 312 h, rate 250 g/ha, evaluated after 13 days, read-out: Post-emergence activity ECHCG (100=total damage to plant; 0=no damage to plant)
Description: as §1, §2

Setaria faberi (SETFA) [10] = assay: as above; details: 312 h, rate 250 g/ha, evaluated after 13 days, read-out: Post-emergence activity SETFA (100=total damage to plant; 0=no damage to plant)
Description: as §1, §2

SMILES | pest or weed control at 250 g/ha [1] [%] | pest or weed control at 250 g/ha [2] [%] | pest or weed control at 250 g/ha (Avena fatua (AVEFA) [3]) [%] | pest or weed control at 250 g/ha [4] [%] | pest or weed control at 250 g/ha (Setaria faberi (SETFA) [5]) [%] | pest or weed control at 250 g/ha [6] [%] | pest or weed control at 250 g/ha [7] [%] | pest or weed control at 250 g/ha (Avena fatua (AVEFA) [8]) [%] | pest or weed control at 250 g/ha [9] [%] | pest or weed control at 250 g/ha (Setaria faberi (SETFA) [10]) [%]
CCc1ccc(-c2ccc(Cl)cc2)cc1C1=C(O)C(C)(C)OC(C)(C)C1=O [Compound A-4] | 70 | 20 | 70 | 100 | 100 | 90 | 20 | 80 | 100 | 100
Cc1ccc(-c2ccc(Cl)cc2F)cc1C1=C(O)C(C)(C)OC(C)(C)C1=O [Compound A-59] | 30 | 0 | 40 | 90 | 40 | 30 | 0 | 50 | 100 | 90
Cc1ccc(-c2c(Cl)cc(Cl)cc2Cl)cc1C1=C(O)C(C)(C)OC(C)(C)C1=O [Compound A-60] | 0 | 0 | 0 | 20 | 20 | 20 | 60 | 0 | 80 | 80
CCc1ccc(-c2ccc(Cl)cc2)cc1C1=C(O)[C@@]2(C)C=C[C@H](O2)C1=O [Compound A-62] | 20 | 0 | 20 | 0 | 60 | 70 | 0 | 70 | 100 | 100
CCc1ccc(-c2ccc(Cl)cc2)cc1C1=C(O)[C@@]2(CC)C=C[C@H](O2)C1=O [Compound A-63] | 0 | 0 | 0 | 0 | 30 | 90 | 0 | 60 | 100 | 100
CCc1ccc(-c2ccc(Cl)cc2C)cc1C1=C(O)C(C)(C)OC(C)(C)C1=O [Compound A-64] | 0 | 0 | 20 | 40 | 40 | 20 | 20 | 0 | 100 | 90
CCc1ccc(-c2ccc(Cl)cc2OC)cc1C1=C(O)C(C)(C)OC(C)(C)C1=O [Compound A-65] | 0 | 0 | 0 | 90 | 0 | 20 | 10 | 0 | 90 | 70
CCc1ccc(-c2ccc(Cl)cc2F)cc1C1=C(O)C(C)(C)OC(C)(C)C1=O [Compound A-66] | 0 | 0 | 40 | 60 | 50 | 20 | 10 | 30 | 100 | 100
